Laboratory results from ChEMBL document CHEMBL1155906, “Structural modifications of N-arylamide oxadiazoles: Identification of N-arylpiperidine oxadiazoles as potent and selective agonists of CB2” (Bioorg Med Chem Lett, 2008).
In brackets after ≈: the same amount, converted by molar mass.

Legend:
[1] = Inhibition of CCR2b receptor
Cannabinoid receptor 2 [2] = target: T1, Cannabinoid receptor 2 (Homo sapiens, UniProt P34972); assay: Agonist activity at human CB2 receptor expressed in insect Sf9 cells assessed as effect on Eu-GTP binding
T1 sequence (P34972 whole entry): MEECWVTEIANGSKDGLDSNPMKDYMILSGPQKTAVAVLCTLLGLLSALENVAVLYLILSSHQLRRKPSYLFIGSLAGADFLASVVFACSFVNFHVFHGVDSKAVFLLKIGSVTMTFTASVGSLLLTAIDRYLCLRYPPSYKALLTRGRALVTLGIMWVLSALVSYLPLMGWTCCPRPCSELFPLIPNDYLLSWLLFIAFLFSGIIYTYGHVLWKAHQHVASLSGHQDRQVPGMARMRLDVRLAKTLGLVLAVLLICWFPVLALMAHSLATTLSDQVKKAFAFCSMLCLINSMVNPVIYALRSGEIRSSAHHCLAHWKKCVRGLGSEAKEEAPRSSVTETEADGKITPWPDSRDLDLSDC

Cannabinoid receptor 2 [3] = target: T1, Cannabinoid receptor 2; assay: Agonist activity at human CB2 receptor expressed in insect Sf9 cells assessed as effect on Eu-GTP binding relative to CP-55940
Cannabinoid receptor 1 [4] = target: T2, Cannabinoid receptor 1 (Homo sapiens, UniProt P21554); assay: Agonist activity at human CB1 receptor expressed in insect Sf9 cells assessed as effect on Eu-GTP binding
T2 sequence (P21554 whole entry): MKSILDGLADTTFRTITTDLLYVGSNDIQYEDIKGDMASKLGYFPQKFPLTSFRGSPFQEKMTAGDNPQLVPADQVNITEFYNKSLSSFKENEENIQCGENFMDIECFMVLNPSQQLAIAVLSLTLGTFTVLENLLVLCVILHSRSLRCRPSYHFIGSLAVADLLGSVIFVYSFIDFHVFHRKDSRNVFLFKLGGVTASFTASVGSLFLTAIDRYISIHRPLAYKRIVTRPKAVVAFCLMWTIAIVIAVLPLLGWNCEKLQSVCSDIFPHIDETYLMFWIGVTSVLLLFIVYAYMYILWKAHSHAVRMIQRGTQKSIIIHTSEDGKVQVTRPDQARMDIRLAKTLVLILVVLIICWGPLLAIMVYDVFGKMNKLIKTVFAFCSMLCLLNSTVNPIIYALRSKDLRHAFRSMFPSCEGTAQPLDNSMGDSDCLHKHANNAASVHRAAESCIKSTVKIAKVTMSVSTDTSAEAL

Cannabinoid receptor 1 [5] = target: T2, Cannabinoid receptor 1; assay: Agonist activity at human CB1 receptor expressed in insect Sf9 cells assessed as effect on Eu-GTP binding relative to CP-55940
[6] = Metabolic stability in rat liver microsome assessed as intrinsic clearance; format: ADME; conditions: liver microsomes
[7] = Metabolic stability in human liver microsome assessed as intrinsic clearance; format: ADME; conditions: liver microsomes
Cannabinoid receptor 2 [8] = target: T1, Cannabinoid receptor 2; assay: Agonist activity at human CB2 receptor assessed as inhibition of forskolin-induced increase in intracellular cAMP; format: functional, cell-based
Cannabinoid receptor 2 [9] = target: T1, Cannabinoid receptor 2; assay: Agonist activity at human CB2 receptor assessed as inhibition of forskolin-induced increase in intracellular cAMP relative to CP-55940; format: functional, cell-based
Cannabinoid receptor 1 [10] = target: T2, Cannabinoid receptor 1; assay: Agonist activity at human CB1 receptor assessed as inhibition of forskolin-induced increase in intracellular cAMP; format: functional, cell-based
Cannabinoid receptor 1 [11] = target: T2, Cannabinoid receptor 1; assay: Agonist activity at human CB1 receptor assessed as inhibition of forskolin-induced increase in intracellular cAMP relative to CP-55940; format: functional, cell-based
[12] = target: Voltage-gated inwardly rectifying potassium channel KCNH2 (Homo sapiens, UniProt Q12809); assay: Displacement of radiolabeled dofetilide from human ERG
[13] = target: T3, Somatostatin receptor type 4 (Homo sapiens, UniProt P31391); assay: Inhibition of sst4 receptor
T3 sequence (P31391 whole entry): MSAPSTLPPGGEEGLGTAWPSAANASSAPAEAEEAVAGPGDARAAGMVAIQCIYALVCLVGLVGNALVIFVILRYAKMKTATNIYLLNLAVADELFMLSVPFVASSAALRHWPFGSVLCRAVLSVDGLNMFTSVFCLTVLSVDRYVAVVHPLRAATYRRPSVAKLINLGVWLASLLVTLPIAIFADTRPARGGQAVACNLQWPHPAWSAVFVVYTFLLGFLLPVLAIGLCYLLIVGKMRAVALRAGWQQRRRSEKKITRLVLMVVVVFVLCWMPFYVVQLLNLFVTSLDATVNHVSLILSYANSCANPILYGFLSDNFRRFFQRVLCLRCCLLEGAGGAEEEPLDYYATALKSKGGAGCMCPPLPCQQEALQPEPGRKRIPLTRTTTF

[14] = Inhibition of adrenergic alpha1 receptor
[15] = target: T4, Beta-1 adrenergic receptor (Homo sapiens, UniProt P08588); assay: Inhibition of adrenergic beta-1 receptor
T4 sequence (P08588 whole entry): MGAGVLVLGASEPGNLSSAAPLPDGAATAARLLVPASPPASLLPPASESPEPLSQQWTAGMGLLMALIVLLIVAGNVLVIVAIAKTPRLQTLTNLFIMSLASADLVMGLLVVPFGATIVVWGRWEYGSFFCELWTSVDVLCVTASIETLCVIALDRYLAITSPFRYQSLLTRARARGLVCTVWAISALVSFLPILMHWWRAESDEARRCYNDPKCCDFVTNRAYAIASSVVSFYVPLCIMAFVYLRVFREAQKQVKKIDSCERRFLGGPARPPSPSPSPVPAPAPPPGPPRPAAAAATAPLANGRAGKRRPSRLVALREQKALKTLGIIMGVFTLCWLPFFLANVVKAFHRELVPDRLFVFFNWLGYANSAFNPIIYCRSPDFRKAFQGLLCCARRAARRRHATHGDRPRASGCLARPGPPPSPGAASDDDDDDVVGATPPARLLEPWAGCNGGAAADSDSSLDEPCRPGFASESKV

D(2) dopamine receptor [16] = target: T5, D(2) dopamine receptor (Homo sapiens, UniProt P14416); assay: Inhibition of dopamine D2 receptor
T5 sequence (P14416 whole entry): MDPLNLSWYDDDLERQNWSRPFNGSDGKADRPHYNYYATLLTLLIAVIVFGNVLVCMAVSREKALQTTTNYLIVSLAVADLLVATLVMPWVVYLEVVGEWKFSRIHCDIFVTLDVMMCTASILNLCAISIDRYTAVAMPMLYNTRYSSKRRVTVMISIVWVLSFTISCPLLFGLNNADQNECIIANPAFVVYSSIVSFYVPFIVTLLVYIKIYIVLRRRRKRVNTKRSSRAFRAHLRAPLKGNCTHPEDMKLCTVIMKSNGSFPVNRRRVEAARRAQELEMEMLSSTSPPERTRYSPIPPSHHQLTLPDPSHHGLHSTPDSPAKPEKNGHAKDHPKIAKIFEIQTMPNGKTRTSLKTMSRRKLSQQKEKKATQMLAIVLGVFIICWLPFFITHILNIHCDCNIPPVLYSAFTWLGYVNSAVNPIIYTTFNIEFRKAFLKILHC

[17] = target: T6, 5-hydroxytryptamine receptor 1A (Homo sapiens, UniProt P08908); assay: Inhibition of 5HT1A receptor
T6 sequence (P08908 whole entry): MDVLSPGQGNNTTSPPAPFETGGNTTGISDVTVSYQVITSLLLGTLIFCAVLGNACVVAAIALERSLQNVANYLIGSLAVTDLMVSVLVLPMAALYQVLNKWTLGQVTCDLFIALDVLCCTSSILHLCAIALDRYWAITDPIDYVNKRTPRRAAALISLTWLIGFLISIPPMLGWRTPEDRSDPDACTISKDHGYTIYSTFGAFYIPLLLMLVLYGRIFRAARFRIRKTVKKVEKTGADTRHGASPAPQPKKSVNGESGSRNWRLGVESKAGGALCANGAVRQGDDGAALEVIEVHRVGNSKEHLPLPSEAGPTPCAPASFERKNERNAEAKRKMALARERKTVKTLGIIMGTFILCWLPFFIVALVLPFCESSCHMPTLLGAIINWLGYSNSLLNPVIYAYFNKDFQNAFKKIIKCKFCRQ

[18] = target: T7, 5-hydroxytryptamine receptor 2B (Homo sapiens, UniProt P41595); assay: Inhibition of 5HT2B receptor
T7 sequence (P41595 whole entry): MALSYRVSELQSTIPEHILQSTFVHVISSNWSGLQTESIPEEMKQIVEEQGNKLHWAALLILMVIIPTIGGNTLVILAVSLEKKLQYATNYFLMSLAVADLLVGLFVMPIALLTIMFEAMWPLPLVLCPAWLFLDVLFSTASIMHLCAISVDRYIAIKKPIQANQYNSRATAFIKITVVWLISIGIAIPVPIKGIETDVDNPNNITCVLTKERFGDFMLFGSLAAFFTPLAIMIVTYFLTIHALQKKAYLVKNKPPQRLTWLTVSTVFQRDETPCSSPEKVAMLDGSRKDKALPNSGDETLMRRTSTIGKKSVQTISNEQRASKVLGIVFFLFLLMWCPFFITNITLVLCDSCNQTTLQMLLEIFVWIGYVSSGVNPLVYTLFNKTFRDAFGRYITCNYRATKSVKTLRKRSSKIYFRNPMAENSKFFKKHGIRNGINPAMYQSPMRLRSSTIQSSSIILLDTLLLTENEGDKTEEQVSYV

[19] = Inhibition of CXR2 receptor
Substance-P receptor [20] = target: T8, Substance-P receptor (Homo sapiens, UniProt P25103); assay: Inhibition of NK1 receptor
T8 sequence (P25103 whole entry): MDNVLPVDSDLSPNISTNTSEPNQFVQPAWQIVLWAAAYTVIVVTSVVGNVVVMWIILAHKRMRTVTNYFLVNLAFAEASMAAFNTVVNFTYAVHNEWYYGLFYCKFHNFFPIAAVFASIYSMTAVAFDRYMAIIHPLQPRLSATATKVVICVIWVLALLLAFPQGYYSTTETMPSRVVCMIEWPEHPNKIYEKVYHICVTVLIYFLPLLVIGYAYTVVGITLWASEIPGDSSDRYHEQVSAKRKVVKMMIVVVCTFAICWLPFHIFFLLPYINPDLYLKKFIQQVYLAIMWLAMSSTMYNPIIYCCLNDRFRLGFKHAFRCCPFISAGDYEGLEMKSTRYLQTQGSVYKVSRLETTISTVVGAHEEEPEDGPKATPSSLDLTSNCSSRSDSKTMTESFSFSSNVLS

Mu-type opioid receptor [21] = target: T9, Mu-type opioid receptor (Homo sapiens, UniProt P35372); assay: Inhibition of mu opioid receptor
T9 sequence (P35372 whole entry): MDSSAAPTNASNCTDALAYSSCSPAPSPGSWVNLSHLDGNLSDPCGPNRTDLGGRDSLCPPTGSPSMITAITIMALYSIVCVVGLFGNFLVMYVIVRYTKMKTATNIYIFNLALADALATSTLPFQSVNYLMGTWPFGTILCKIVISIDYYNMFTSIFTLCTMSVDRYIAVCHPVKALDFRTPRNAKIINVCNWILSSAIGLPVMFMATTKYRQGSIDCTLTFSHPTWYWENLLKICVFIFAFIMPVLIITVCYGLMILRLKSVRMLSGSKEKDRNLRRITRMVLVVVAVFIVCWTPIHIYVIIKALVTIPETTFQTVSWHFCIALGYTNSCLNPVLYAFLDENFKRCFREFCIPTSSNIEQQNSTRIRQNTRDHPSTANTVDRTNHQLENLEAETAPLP

Histamine H1 receptor [22] = target: T10, Histamine H1 receptor (Homo sapiens, UniProt P35367); assay: Inhibition of histamine H1 receptor
T10 sequence (P35367 whole entry): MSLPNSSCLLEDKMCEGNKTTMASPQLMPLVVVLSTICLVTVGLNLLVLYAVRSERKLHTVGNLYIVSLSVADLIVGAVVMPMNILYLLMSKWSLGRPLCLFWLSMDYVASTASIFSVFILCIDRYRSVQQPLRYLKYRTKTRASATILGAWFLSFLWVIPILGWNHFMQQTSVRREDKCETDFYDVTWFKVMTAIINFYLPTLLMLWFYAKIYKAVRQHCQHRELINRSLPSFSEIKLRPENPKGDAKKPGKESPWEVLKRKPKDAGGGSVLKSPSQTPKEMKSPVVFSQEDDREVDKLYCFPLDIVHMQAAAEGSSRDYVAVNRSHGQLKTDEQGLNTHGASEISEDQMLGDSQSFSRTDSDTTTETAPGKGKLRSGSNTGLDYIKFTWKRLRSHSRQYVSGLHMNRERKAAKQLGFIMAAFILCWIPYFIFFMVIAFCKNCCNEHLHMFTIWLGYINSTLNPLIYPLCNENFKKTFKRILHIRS

[23] = target: T11, Muscarinic acetylcholine receptor M1 (Homo sapiens, UniProt P11229); assay: Inhibition of muscarinic M1 receptor
T11 sequence (P11229 whole entry): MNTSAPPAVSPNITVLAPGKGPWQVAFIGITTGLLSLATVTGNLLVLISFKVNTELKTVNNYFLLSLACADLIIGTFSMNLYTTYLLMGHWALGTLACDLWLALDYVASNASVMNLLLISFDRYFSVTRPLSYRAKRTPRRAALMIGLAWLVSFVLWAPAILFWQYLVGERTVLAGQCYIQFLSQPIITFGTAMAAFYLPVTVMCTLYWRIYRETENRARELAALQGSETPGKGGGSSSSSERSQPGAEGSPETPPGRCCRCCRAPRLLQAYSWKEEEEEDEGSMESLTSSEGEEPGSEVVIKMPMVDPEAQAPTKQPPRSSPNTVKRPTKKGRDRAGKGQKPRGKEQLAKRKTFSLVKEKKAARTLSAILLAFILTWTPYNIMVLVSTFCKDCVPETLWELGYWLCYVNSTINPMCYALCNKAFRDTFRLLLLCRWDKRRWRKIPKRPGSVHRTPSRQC

[24] = target: T3, Somatostatin receptor type 4; assay: Agonist activity at sst4 receptor; format: functional
[25] = Agonist activity at adrenergic alpha1 receptor; format: functional
[26] = target: T4, Beta-1 adrenergic receptor; assay: Agonist activity at adrenergic beta-1 receptor; format: functional
D(2) dopamine receptor [27] = target: T5, D(2) dopamine receptor; assay: Agonist activity at dopamine D2 receptor; format: functional
[28] = target: T6, 5-hydroxytryptamine receptor 1A; assay: Agonist activity at 5HT1A receptor; format: functional
[29] = target: T7, 5-hydroxytryptamine receptor 2B; assay: Agonist activity at 5HT2B receptor; format: functional
[30] = Agonist activity at CXR2 receptor; format: functional
[31] = Agonist activity at CCR2b receptor; format: functional
Substance-P receptor [32] = target: T8, Substance-P receptor; assay: Agonist activity at NK1 receptor; format: functional
Mu-type opioid receptor [33] = target: T9, Mu-type opioid receptor; assay: Agonist activity at mu opioid receptor; format: functional
Histamine H1 receptor [34] = target: T10, Histamine H1 receptor; assay: Agonist activity at histamine H1 receptor; format: functional
[35] = target: T11, Muscarinic acetylcholine receptor M1; assay: Agonist activity at muscarinic M1 receptor; format: functional
[36] = Bioavailability in Sprague-Dawley rat at 10 mg/kg, po; format: ADME, organism-based; conditions: in vivo
[37] = Clearance in Sprague-Dawley rat at 0.5 mg/kg, iv; format: ADME, organism-based; parameters: dose 0.5 mg/kg, route intravenous; conditions: in vivo
[38] = Volume of distribution at steady state in Sprague-Dawley rat at 0.5 mg/kg, iv; format: ADME, organism-based; parameters: dose 0.5 mg/kg, route intravenous; conditions: in vivo, read-out: Vdss
[39] = Half life in Sprague-Dawley rat at 0.5 mg/kg, iv; format: ADME, organism-based; parameters: dose 0.5 mg/kg, route intravenous; conditions: in vivo
[40] = Cmax in Sprague-Dawley rat at 10 mg/kg, po; format: ADME, organism-based; parameters: dose 10 mg/kg, route oral; conditions: in vivo
[41] = AUC (0 to 24 hrs) in Sprague-Dawley rat at 10 mg/kg, po; format: ADME, organism-based; parameters: time < 24 hr, dose 10 mg/kg, route oral; conditions: plasma
[42] = Solubility in 0.01 N HCl; format: physicochemical
[43] = Solubility in phosphate buffer saline; format: physicochemical; conditions: phosphate buffered saline
[44] = Solubility in simulated intestinal fluid; format: physicochemical
[45] = Apparent permeability across pig wild-type LLC-PK1 cells at 5 uM in presence of 0.1% BSA; format: ADME, cell-based, Sus scrofa
LLC-PK1 [46] = assay: Ratio of permeability from basolateral to apical side to apical to basolateral side in pig wild-type LLC-PK1 cells at 5 uM in presence of 0.1% BSA; format: ADME, cell-based, Sus scrofa; conditions: llc-pk1, 5 µM
human MDR1 (P-gp) = assay: Apparent permeability across pig LLC-PK1 cells transfected with human MDR1 at 5 uM in presence of 0.1% BSA; format: ADME, cell-based, Sus scrofa
LLC-PK1 [47] = assay: Ratio of permeability from basolateral to apical side to apical to basolateral side in pig LLC-PK1 cells expressing human MDR1 at 5 uM in presence of 0.1% BSA; format: ADME, cell-based, Sus scrofa; conditions: llc-pk1, 5 µM

IC50 [1]: > 50 µM
EC50 (Cannabinoid receptor 2 [2]): 0.007 µM
Emax (Cannabinoid receptor 2 [3]): 120%
EC50 (Cannabinoid receptor 1 [4]): 1.43 µM
Emax (Cannabinoid receptor 1 [5]): 55%
microsomal CLint [6]: 32 µL/min/mg
microsomal CLint [7]: 38 µL/min/mg
EC50 (Cannabinoid receptor 2 [8]): 0.011 µM
Emax (Cannabinoid receptor 2 [9]): 102%
EC50 (Cannabinoid receptor 1 [10]): > 2 µM
Emax (Cannabinoid receptor 1 [11]): 19%
IC50 [13]: > 50 µM
IC50 [14]: > 50 µM
IC50 [15]: > 50 µM
IC50 (D(2) dopamine receptor [16]): > 50 µM
IC50 [17]: > 50 µM
IC50 [18]: > 50 µM
IC50 [19]: > 50 µM
IC50 (Substance-P receptor [20]): > 50 µM
IC50 (Mu-type opioid receptor [21]): > 50 µM
IC50 (Histamine H1 receptor [22]): > 50 µM
IC50 [23]: > 50 µM
EC50 [24]: > 50 µM
EC50 [25]: > 50 µM
EC50 [26]: > 50 µM
EC50 (D(2) dopamine receptor [27]): > 50 µM
EC50 [28]: > 50 µM
EC50 [29]: > 50 µM
EC50 [30]: > 50 µM
EC50 [31]: > 50 µM
EC50 (Substance-P receptor [32]): > 50 µM
EC50 (Mu-type opioid receptor [33]): > 50 µM
EC50 (Histamine H1 receptor [34]): > 50 µM
EC50 [35]: > 50 µM
bioavailability [36]: 2%
clearance [37]: 0.65 mL/min/kg
Vd [38]: 0.365 L/kg
half-life [39]: 8.9 h
Cmax [40]: 682 ng/mL
AUC(0-t) at 24 h [41]: 5240 ng·h/mL
solubility [42]: < 1 µg/mL
solubility [43]: < 1 µg/mL
solubility [44]: 2 µg/mL (≈ 4.51 µM)
Papp at 5 µM [45]: 9.95 ×10⁻⁶ cm/s
Ratio (LLC-PK1 [46]): 0.9
Papp at 5 µM (human MDR1 (P-gp)): 10.7 ×10⁻⁶ cm/s
Ratio (LLC-PK1 [47]): 0.9
Structure (SMILES): Fc1ccc(-c2noc(C3CCN(c4cnc5ccc(Cl)cc5c4)CC3)n2)c(Cl)c1
IC50 [12]: 0.5 µM
